Results taken from patent US20090270350A1, “Pyridinone Pyrazole Urea and Pyrimidinone Pyrazole Urea Derivatives” (PFIZER INC., priority 2006, published 2009).

Target: p38α (Homo sapiens, UniProt Q16539)
Assay: p38α/MK2 cascade assay
Assay type: biochemical
Conditions: Table 1; inhibitors preincubated with p38α for 40 minutes; phosphorylation of Hsp27 peptide by MK-2, Caliper LabChip 3000; read-out: p38a/MK2 Cascade 40 min Pre-Incuabtion (% Inhibition): IC50
Description: The ability of compounds to inhibit activated p38α was determined in a p38α/MK-2 cascade assay format. The kinase activity of p38α is determined by its ability to phosphorylate/activate nonactive MK2 (54-400). Activation of MK-2 by p38α is measured by following the phosphorylation of a MK-2 specific peptide, Hsp27 peptide (FITC-KKKALSRQLSVAA). The phosphorylation of the Hsp27 peptide was quantified using the Caliper LabChip 3000. The kinase reactions were carried out in 20 mM HEPES pH 7.5, 10 mM MgCl2, 0.0005% Tween-20, 0.01% BSA, 1 mM DTT, and 2% DMSO. The inhibitors were varied between 1000-0.05 nM, while the Hsp27 peptide substrate, MgATP, and nonactive MK-2 (54-400) were held constant at 0.5 µM, 5 µM, and 1 nM, respectively. Inhibitors were preincubated with p38α for 40 minutes prior to initiating the reaction with peptide, MgATP, and MK-2. The kinase reactions were quenched after 60 minutes by the addition of stop buffer (180 mM HEPES, 30 mM EDTA, and 0.2% Coating Reagent-3).
The above protocol assay was used to determine the IC50 values for some of the compounds in the above Examples.
IC50 values were determined for the compounds listed in Table 2, using the same p38α/MK2 cascade assay used to determine the IC50 values for the compounds in Table 1. The compounds of Table 2 were prepared using methods similar to those listed in the Examples for compounds of Table 1.

Sequence of p38α (Q16539 whole entry): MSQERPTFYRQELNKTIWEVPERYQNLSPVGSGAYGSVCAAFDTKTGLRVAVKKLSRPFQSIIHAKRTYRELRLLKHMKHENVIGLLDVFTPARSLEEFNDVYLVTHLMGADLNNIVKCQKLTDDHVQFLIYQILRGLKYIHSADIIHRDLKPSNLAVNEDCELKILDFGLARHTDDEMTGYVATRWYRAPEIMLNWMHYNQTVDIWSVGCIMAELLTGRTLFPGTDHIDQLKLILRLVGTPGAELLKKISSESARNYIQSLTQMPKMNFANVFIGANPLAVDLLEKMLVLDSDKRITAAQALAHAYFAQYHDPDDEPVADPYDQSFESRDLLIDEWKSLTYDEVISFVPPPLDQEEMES

| IC50 [nM] | Structure (SMILES) |
| --- | --- |
| 266 | COc1cccc(Cn2c(C)cc(OCc3ccc(F)cc3CNC(=O)Nc3cc(C(C)(C)C)nn3-c3cccc(OCCOC4CCCCO4)c3)cc2=O)c1 (centres unmarked) [Example 34, 1-(3-tert-butyl-1-{3-[2-(tetrahydro-2H-pyran-2-yloxy)ethoxy]phenyl}-1H-pyrazol-5-yl)-3-[5-fluoro-2-({[1-(3-methoxybenzyl)-6-methyl-2-oxo-1,2-dihydropyridin-4-yl]oxy}methyl)benzyl]urea] |
| 42.2 | COc1cccc(Cn2c(C)cc(OCc3ccc(F)cc3CNC(=O)Nc3cc(C(C)(C)C)nn3-c3cccc(OC)c3)cc2=O)c1 [Example 35, 1-[3-tert-butyl-1-(3-methoxyphenyl)-1H-pyrazol-5-yl]-3-[5-fluoro-2-({[1-(3-methoxybenzyl)-6-methyl-2-oxo-1,2-dihydropyridin-4-yl]oxy}methyl)benzyl]urea] |
| 142 | COc1cccc(Cn2c(C)cc(OCc3ccccc3CNC(=O)Nc3cc(C(C)(C)C)nn3-c3cccc(OCCOC4CCCCO4)c3)cc2=O)c1 (centres unmarked) [Example 36, 1-(3-tert-butyl-1-{3-[2-(tetrahydro-2H-pyran-2-yloxy)ethoxy]phenyl}-1H-pyrazol-5-yl)-3-[2-({[1-(3-methoxybenzyl)-6-methyl-2-oxo-1,2-dihydropyridin-4-yl]oxy}methyl)benzyl]urea] |
| 29.3 | COc1cccc(Cn2c(C)cc(OCc3ccc(F)cc3CNC(=O)Nc3cc(C(C)(C)C)nn3-c3cccc(OCCO)c3)cc2=O)c1 [Example 37, 1-{3-tert-butyl-1-[3-(2-hydroxyethoxy)phenyl]-1H-pyrazol-5-yl}-3-[5-fluoro-2-({[1-(3-methoxybenzyl)-6-methyl-2-oxo-1,2-dihydropyridin-4-yl]oxy}methyl)benzyl]urea] |
| 31.1 | COc1cccc(Cn2c(C)cc(OCc3ccccc3CNC(=O)Nc3cc(C(C)(C)C)nn3-c3cccc(OCCO)c3)cc2=O)c1 [Example 38, 1-{3-tert-butyl-1-[3-(2-hydroxyethoxy)phenyl]-1H-pyrazol-5-yl}-3-[2-({[1-(3-methoxybenzyl)-6-methyl-2-oxo-1,2-dihydropyridin-4-yl]oxy}methyl)benzyl]urea] |
| 7.3 | COc1cccc(Cn2c(C)cc(OCc3ccc(F)cc3CNC(=O)Nc3cc(C(C)(C)C)nn3-c3cccc(OCCO)c3)c(Cl)c2=O)c1 [Example 39, 1-{3-tert-butyl-1-[3-(2-hydroxyethoxy)phenyl]-1-pyrazol-5-yl}-3-[2-({[3-chloro-1-(3-methoxybenzyl)-6-methyl-2-oxo-1,2-dihydropyridin-4-yl]oxy}methyl)-5-fluorobenzyl]urea] |
| 21.6 | COc1cccc(Cn2c(C)cc(OCc3ccc(F)cc3CNC(=O)Nc3cc(C(C)(C)C)nn3-c3cccc(OCCOC4CCCCO4)c3)c(Cl)c2=O)c1 (centres unmarked) [Example 41, 1-(3-tert-butyl-1-{3-[2-(tetrahydro-2H-pyran-2-yloxy)ethoxy]phenyl}-1H-pyrazol-5-yl)-3-[2-({[3-chloro-1-(3-methoxybenzyl)-6-methyl-2-oxo-1,2-dihydropyridin-4-yl]oxy}methyl)-5-fluorobenzyl]urea] |
| 5.8 | COc1cccc(Cn2c(C)cc(OCc3ccccc3CNC(=O)Nc3cc(C(C)(C)C)nn3-c3cccc(OC)c3)c(Cl)c2=O)c1 [Example 44, 1-[3-tert-butyl-1-(3-methoxyphenyl)-1H-pyrazol-5-yl]-3-[2-({[3-chloro-1-(3-methoxybenzyl)-6-methyl-2-oxo-1,2-dihydropyridin-4-yl]oxy}methyl)benzyl]urea] |
| 6.2 | COc1cccc(Cn2c(C)cc(OCc3ccc(F)cc3CNC(=O)Nc3cc(C(C)(C)C)nn3-c3ccc(Cl)c(O)c3)c(Cl)c2=O)c1 [Example 45, 1-[3-tert-butyl-(4-chloro-3-hydroxyphenyl)-1H-pyrazol-5-yl]-3-[2-({[3-chloro-1-(3-methoxybenzyl)-6-methyl-2-oxo-1,2-dihydropyridin-4-yl]oxy}methyl)-5-fluorobenzyl]urea] |
| 4 | COc1cccc(Cn2c(C)cc(OCc3ccc(F)cc3CNC(=O)Nc3cc(C(C)(C)C)nn3-c3ccc(O)c(Cl)c3)c(Cl)c2=O)c1 [Example 46, 1-[3-tert-butyl-1-(3-chloro-4-hydroxyphenyl)-1H-pyrazol-5-yl]-3-[2-({[3-chloro-1-(3-methoxybenzyl)-6-methyl-2-oxo-1,2-dihydropyridin-4-yl]oxy}methyl)-5-fluorobenzyl]urea] |
| 12.2 | COc1cccc(Cn2c(C)cc(OCc3ccccc3CNC(=O)Nc3cc(C(C)(C)C)nn3-c3ccc(Cl)c(O)c3)c(C)c2=O)c1 [Example 47, 1-[3-tert-butyl-1-(4-chloro-3-hydroxyphenyl)-1H-pyrazol-5-yl]-3-[2-({[1-(3-methoxybenzyl)-3,6-dimethyl-2-oxo-1,2-dihydropyridin-4-yl]oxy}methyl)benzyl]urea] |
| 6.4 | COc1cccc(Cn2c(C)cc(OCc3ccccc3CNC(=O)Nc3cc(C(C)(C)C)nn3-c3cccc(OCCO)c3)c(C)c2=O)c1 [Example 48, 1-{3-tert-butyl-1-[3-(2-hydroxyethoxy)phenyl]-1H-pyrazol-5-yl}-3-[2-({[1-(3-methoxybenzyl)-3,6-dimethyl-2-oxo-1,2-dihydropyridin-4-yl]oxy}methyl)benzyl]urea] |
| 6.5 | COc1cccc(Cn2c(C)cc(OCc3ccc(F)cc3CNC(=O)Nc3cc(C(C)(C)C)nn3-c3cccc(O)c3)c(Cl)c2=O)c1 [Example 50, 1-[3-tert-butyl-1-(3-hydroxyphenyl)-1H-pyrazol-5-yl]-3-[2-({[3-chloro-1-(3-methoxybenzyl)-6-methyl-2-oxo-1,2-dihydropyridin-4-yl]oxy}methyl)-5-fluorobenzyl]urea] |
| 5.8 | COc1cccc(Cn2c(C)cc(OCc3ccccc3CNC(=O)Nc3cc(C(C)(C)C)nn3-c3ccc(O)cc3)c(Cl)c2=O)c1 [Example 51, 1-[3-tert-butyl-1-(4-hydroxyphenyl)-1H-pyrazol-5-yl]-3-[2-({[3-chloro-1-(3-methoxybenzyl)-6-methyl-2-oxo-1,2-dihydropyridin-4-yl]oxy}methyl)benzyl]urea] |
| 6.2 | COc1cccc(Cn2c(C)cc(OCc3ccccc3CNC(=O)Nc3cc(C(C)(C)C)nn3-c3cccc(O)c3)c(Cl)c2=O)c1 [Example 52, 1-[3-tert-butyl-1-(3-hydroxyphenyl)-1H-pyrazol-5-yl]-3-[2-({[3-chloro-1-(3-methoxybenzyl)-6-methyl-2-oxo-1,2-dihydropyridin-4-yl]oxy}methyl)benzyl]urea] |

| Structure (SMILES) | IC50 [nM] |
| --- | --- |
| COc1cccc(Cn2c(C)cc(OCc3ccc(F)cc3CNC(=O)Nc3cc(C(C)(C)C)nn3-c3ccc(O[Si](C)(C)C(C)(C)C)c(Cl)c3)c(Cl)c2=O)c1 [Example 42, 1-[3-tert-butyl-1-(4-{[tert-butyl(dimethyl)silyl]oxy}-3-chlorophenyl)-1H-pyrazol-5-yl]-3-[2-({[3-chloro-1-(3-methoxybenzyl)-6-methyl-2-oxo-1,2-dihydropyridin-4-yl]oxy}methyl)-5-fluorobenzyl]urea] | 116 |
| COc1cccc(Cn2c(C)cc(OCc3ccc(F)cc3CNC(=O)Nc3cc(C(C)(C)C)nn3-c3ccc(Cl)c(O[Si](C)(C)C(C)(C)C)c3)c(Cl)c2=O)c1 [Example 43, 1-[3-tert-butyl-1-(3-{[tert-butyl(dimethyl)silyl]oxy}-4-chlorophenyl)-1H-pyrazol-5-yl]-3-[2-({[3-chloro-1-(3-methoxybenzyl)-6-methyl-2-oxo-1,2-dihydropyridin-4-yl]oxy}methyl)-5-fluorobenzyl]urea] | 43.1 |
